Test results as given in patent US8828997B2, “2,3-dihydro-1H-imidazo(1,2-a)pyrimidin-5-one derivatives, preparation thereof, and pharmaceutical use thereof” (Sanofi, priority 2009, dated 2014).

Experiments:
[1] = test system: AKT protein phosphorylated on serine 473 (P-AKT-S473) in PC3 human prostate carcinoma cells; assay: pAKT expression in PC3 human prostate carcinoma cells measured by MSD Multi-spot Biomarker detection (test B); type: cell-based; conditions: Homo sapiens, PC-3, P-AKT-S473, PC3 cells, MSD sandwich immunoassay, 1 to 2 h incubation, absolute IC50
Procedure, shortened: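 PC3 cells exposed to compound for 1-2 h at 37 °C (0.1% DMSO; up to 10 μM), lysed, and P-AKT-S473 quantified by electrochemiluminescent sandwich immunoassay. Percent inhibition normalised to DMSO wells with background subtracted. Absolute IC50 from dose-response curves, averaged over 2 experiments.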

[2] = test system: P. falciparum (highly chloroquine-resistant strain Fcm29-Cameroon); assay: Antimalarial activity test (radioactive micromethod of Desjardins, tritiated hypoxanthine incorporation); type: cell-based; conditions: Plasmodium falciparum, Erythrocyte, infected human erythrocytes, 48 h
Procedure, shortened: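 P. falciparum cultured in infected human erythrocytes (2% haematocrit, 1.5% parasitaemia) in RPMI 1640 with 5% human serum and 1% DMSO, exposed to compound for 48 h at 37 °C, 5% CO2. Tritiated hypoxanthine added at 24 h; growth inhibition versus drug-free incorporation, reported as % at 1 μM and 0.1 μM.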

- IC50 [1]: 3 nM
SMILES: COc1ccc(CCN2c3nc(N4CCOCC4)cc(=O)n3C[C@@]2(C)C(F)(F)F)cc1 [Example 1, (S)-1-[2-(4-Methoxyphenyl)ethyl]-2-methyl-7-morpholin-4-yl-2-trifluoromethyl-2,3-dihydro-1H-imidazo[1,2-a]pyrimidin-5-one]
- inhibition at 0.1 µM ([2]; 0.1 μM): 67%
- inhibition at 1 µM ([2]; 1 μM): 93%
